# Measured values as given in PMC12881681 (Molecular Pharmacology, 2025).
# Test: Pharmacokinetics study in mice: erlotinib pretreatment, carbazeran and 4-oxo-carbazeran
# Format: in vivo, BALB/c mice
# Conditions: erlotinib 100 mg/kg p.o.
# Experimental: BALB/c mice (male, ∼8 weeks old) were purchased and housed at the Biological Resource Centre, Agency for Science, Technology and Research (A∗STAR). The experimental protocol was approved by the A∗STAR Institutional Review Board. […] Blood (12.5 μL) was drawn from the tail vein (with a needle prick) at various times (0.25, 0.5, 0.75, 1, 2, 3, 4, 6, and 8 hours) after carbazeran dosing. The blood samples were diluted 2 times with 12.5 μL of water. Acetonitrile containing the internal standard (carbazeran-d4, 4 nM in 75 μL acetonitrile and 3 nM in final sample volume of 100 μL) was added to the blood samples to precipitate proteins. […] Blank and standard calibration samples were prepared from control mice that were not treated with any chemicals. Pharmacokinetic data were analyzed by noncompartmental analysis using Phoenix WinNonlin 6.3 (Certara).
# At the end of the last blood collection (8 hour post-carbazeran dosing), the mice were sacrificed. […] The tissue samples were homogenized, and a 12.5 μL aliquot of the homogenate was diluted with an equal volume of water. Acetonitrile containing the internal standard (carbazeran-d4, 4 nM in 75 μL acetonitrile and 3 nM in final sample volume of 100 μL) was added to the diluted tissue samples (25 μL) to precipitate the proteins.
smiles,measurement,setting,value
C#Cc1cccc(Nc2ncnc3cc(OCCOC)c(OCCOC)cc23)c1 [Erlotinib],concentration of 4-oxo-carbazeran metabolite in liver and kidneys,8 hours after carbazeran,decreased the concentration
same,concentration of carbazeran in liver and kidneys,8 hours after carbazeran,increased the concentration
same,concentration of 4-oxo-carbazeran metabolite in blood vs vehicle-treated control,all time points to 8 h,far lesser concentration
same,concentration of carbazeran in blood vs vehicle-treated control,all time points to 8 h,greater concentration
